Data reported in PubChem BioAssay AID248 (DTP/NCI, 2004).
Where “and” joins values, the source holds several entries; their conditions need not be identical. Equal entries are not always repeated. Toxic doses and inconclusive results are not listed. No stated cut-off is given here; in the data, active means T/C of 150% or more; inactive means T/C below 125%.

System: L1210 leukemia ip in BDF1 mice, survival T/C
Test: NCI In Vivo Anticancer Drug Screen. Data for tumor model L1210 Leukemia (intraperitoneal) in B6D2F1 (BDF1) mice
Conditions: endpoint: mean survival time, higher = longer survival
Summary of the method: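 Each compound was tested against a transplantable tumor grown in mice. The endpoint was survival, with treated animals benchmarked against vehicle controls as a simple ratio.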

[1] = dose: 6.25 mg/kg/injection, schedule: Q01DX009 (ip), vehicle: saline
[2] = dose: 12.5 mg/kg/injection, schedule: Q01DX009 (ip), vehicle: saline
[3] = dose: 25.0 mg/kg/injection, schedule: Q01DX009 (ip), vehicle: saline
[4] = dose: 25.0 mg/kg/injection, schedule: Q04DX003 (ip), vehicle: saline
[5] = dose: 50.0 mg/kg/injection, schedule: Q01DX009 (ip), vehicle: saline
[6] = dose: 50.0 mg/kg/injection, schedule: Q04DX003 (ip), vehicle: saline
[7] = dose: 100.0 mg/kg/injection, schedule: Q04DX003 (ip), vehicle: saline
[8] = dose: 50.0 mg/kg/injection, schedule: Q04DX002 (ip), vehicle: Klucel (hydroxypropylcellulose) (HPC)
[9] = dose: 100.0 mg/kg/injection, schedule: Q04DX002 (ip), vehicle: Klucel (hydroxypropylcellulose) (HPC)
[10] = dose: 25.0 mg/kg/injection, schedule: Q01DX009 (ip), vehicle: Klucel (hydroxypropylcellulose) (HPC)
[11] = dose: 50.0 mg/kg/injection, schedule: Q01DX009 (ip), vehicle: Klucel (hydroxypropylcellulose) (HPC)
[12] = dose: 100.0 mg/kg/injection, schedule: Q01DX009 (ip), vehicle: Klucel (hydroxypropylcellulose) (HPC)

Measured: T/C

CN1CCN=C(c2ccccc2)c2cc(Cl)ccc21
inactive: [1] 110 % of control | [2] 101 % of control | [3] 94 % of control | [4] 93 % of control | [5] 100 % of control | [6] 93 % of control | dose: 100.0 mg/kg/injection, schedule: Q01DX009 (ip), vehicle: saline 95 % of control | [7] 98 % of control

CCN=C(N)c1ccc(N=C(N)c2ccc(C(N)=Nc3ccc(C(N)=NCC)cc3)cc2)cc1
inactive: dose: 7.5 mg/kg/injection, schedule: Q01DX Z (oral), vehicle: saline 98 % of control | dose: 15.0 mg/kg/injection, schedule: Q01DX Z (oral), vehicle: saline 100 % of control | dose: 30.0 mg/kg/injection, schedule: Q01DX Z (oral), vehicle: saline 102 % of control | dose: 60.0 mg/kg/injection, schedule: Q01DX Z (oral), vehicle: saline 102 % of control | dose: 125.0 mg/kg/injection, schedule: Q## X010 (oral), vehicle: saline 103 % of control | dose: 150.0 mg/kg/injection, schedule: Q01DX Z (oral), vehicle: saline 89 % of control
active: dose: 15.0 mg/kg/injection, schedule: Q01DX Z (ip), vehicle: saline 258 % of control | dose: 250.0 mg/kg/injection, schedule: Q## X010 (oral), vehicle: saline 195 % of control

CN(C)CC/C=C1/c2ccccc2COc2ccccc21
inactive: dose: 6.12 mg/kg/injection, schedule: Q01DX001 (ip), vehicle: water 111 % of control | [1] 103 % of control | dose: 12.5 mg/kg/injection, schedule: Q01DX001 (ip), vehicle: water 113 % of control | [2] 107 % of control | dose: 25.0 mg/kg/injection, schedule: Q01DX001 (ip), vehicle: water 103 % of control | [3] 101 % of control | [4] 109 % of control | [5] 113 % of control | [6] 101 % of control | [7] 93 % of control

O=C(O)c1cc(=O)c2cccc(Cl)c2[nH]1
inactive: [8] 103 % of control | [9] 100 % of control | dose: 200.0 mg/kg/injection, schedule: Q04DX002 (ip), vehicle: Klucel (hydroxypropylcellulose) (HPC) 96 % of control

Cc1cc(C)nc(NCC(=O)O)n1
inactive: dose: 50.0 mg/kg/injection, schedule: Q04DX002 (ip), vehicle: saline 95 % of control | dose: 100.0 mg/kg/injection, schedule: Q04DX002 (ip), vehicle: saline 95 % of control | dose: 200.0 mg/kg/injection, schedule: Q04DX002 (ip), vehicle: saline 95 % of control

CCNC(=O)c1cc(NC(=O)c2ccc(C(=O)Nc3cc(C(=O)NCC)cc(C4=NCCN4)c3)cc2)cc(C2=NCCN2)c1
inactive: dose: 14.25 mg/kg/injection, schedule: Q01DX015 (ip), vehicle: water 101 % of control | dose: 28.5 mg/kg/injection, schedule: Q01DX015 (ip), vehicle: water 98 % of control | dose: 57.0 mg/kg/injection, schedule: Q01DX015 (ip), vehicle: water 116 % of control

COc1cc2c(c(OC)c1OC)-c1ccc(OC)c(=O)cc1[C@@H](NC(=O)CF)CC2
inactive: dose: 0.04 mg/kg/injection, schedule: Q01DX009 (ip), vehicle: saline 113 % of control | dose: 0.06 mg/kg/injection, schedule: Q04DX002 (ip), vehicle: saline with Tween-80 101 % of control | dose: 0.09 mg/kg/injection, schedule: Q01DX001 (ip), vehicle: saline with Tween-80 116 % of control | dose: 0.09 mg/kg/injection, schedule: Q01DX009 (ip), vehicle: saline with Tween-80 122 % of control | dose: 0.09 mg/kg/injection, schedule: Q01DX009 (ip), vehicle: saline 118 % of control | dose: 0.09 mg/kg/injection, schedule: Q04DX003 (ip), vehicle: saline with Tween-80 108 % of control | dose: 0.12 mg/kg/injection, schedule: Q04DX002 (ip), vehicle: saline with Tween-80 104 % of control | dose: 0.18 mg/kg/injection, schedule: Q01DX001 (ip), vehicle: saline with Tween-80 119 % of control | dose: 0.18 mg/kg/injection, schedule: Q04DX003 (ip), vehicle: saline with Tween-80 113 % of control | dose: 0.25 mg/kg/injection, schedule: Q04DX002 (ip), vehicle: saline with Tween-80 117 % of control | dose: 0.37 mg/kg/injection, schedule: Q01DX001 (ip), vehicle: saline with Tween-80 114 % of control | dose: 0.37 mg/kg/injection, schedule: Q01DX009 (ip), vehicle: saline with Tween-80 100 % of control | dose: 0.37 mg/kg/injection, schedule: Q04DX003 (ip), vehicle: saline with Tween-80 118 % of control | dose: 0.5 mg/kg/injection, schedule: Q04DX002 (ip), vehicle: saline with Tween-80 121 % of control | dose: 0.75 mg/kg/injection, schedule: Q01DX001 (ip), vehicle: saline with Tween-80 121 % of control | dose: 0.75 mg/kg/injection, schedule: Q04DX003 (ip), vehicle: saline with Tween-80 116 % of control | dose: 1.5 mg/kg/injection, schedule: Q04DX002 (ip), vehicle: saline with Tween-80 113 % of control | dose: 2.0 micrograms/kg/injection, schedule: Q01DX009 (ip), vehicle: saline with Tween-80 97 % of control | dose: 5.0 micrograms/kg/injection, schedule: Q01DX009 (ip), vehicle: saline with Tween-80 105 % of control | dose: 10.0 micrograms/kg/injection, schedule: Q01DX009 (ip), vehicle: saline with Tween-80 89 % of control

CC(=O)NC1C(Nc2ccc(S(=O)(=O)Nc3nccc(C)n3)cc2)OC(CO)C(O)C1O (configuration not stated)
inactive: dose: 250.0 mg/kg/injection, schedule: Q01DX Z (ip), vehicle: methylcellulose (MC) 94 % of control | dose: 375.0 mg/kg/injection, schedule: Q01DX Z (ip), vehicle: methylcellulose (MC) 93 % of control | dose: 500.0 mg/kg/injection, schedule: Q01DX Z (ip), vehicle: methylcellulose (MC) 102 % of control

CC1OC(=O)C(C)(Br)OC1=O (configuration not stated)
inactive: dose: 100.0 mg/kg/injection, schedule: Q01DX001 (ip), vehicle: acetone 93 % of control | dose: 200.0 mg/kg/injection, schedule: Q01DX001 (ip), vehicle: acetone 104 % of control

N#CC1CC=CCC1 (configuration not stated)
inactive: [1] 113 % of control | dose: 6.25 mg/kg/injection, schedule: Q04DX003 (ip), vehicle: saline 101 % of control | [2] 121 % of control | dose: 12.5 mg/kg/injection, schedule: Q04DX003 (ip), vehicle: saline 90 % of control | [3] 103 % of control | [4] 113 % of control

CCNC(C)(C)C(Cl)c1ccc(Cl)s1 (configuration not stated)
inactive: [10] 90 % of control | dose: 25.0 mg/kg/injection, schedule: Q04DX003 (ip), vehicle: Klucel (hydroxypropylcellulose) (HPC) 101 % of control | [11] 89 % of control | dose: 50.0 mg/kg/injection, schedule: Q04DX003 (ip), vehicle: Klucel (hydroxypropylcellulose) (HPC) 97 % of control | [12] 90 % of control | dose: 100.0 mg/kg/injection, schedule: Q04DX003 (ip), vehicle: Klucel (hydroxypropylcellulose) (HPC) 101 % of control and 102 % of control

CC1(C)N=C(N)N=C(N)N1c1cccc(Cl)c1Cl
inactive: dose: 5.0 mg/kg/injection, schedule: Q01DX009 (ip), vehicle: saline 95 % of control | dose: 10.0 mg/kg/injection, schedule: Q01DX009 (ip), vehicle: saline 104 % of control | dose: 20.0 mg/kg/injection, schedule: Q01DX009 (ip), vehicle: saline 107 % of control

CC1=NN(P(=O)(c2ccccc2)c2ccccc2)/C(=C\c2ccccc2)O1
inactive: dose: 100.0 mg/kg/injection, schedule: Q01DX001 (ip), vehicle: steriod suspending solution 90 % of control | dose: 200.0 mg/kg/injection, schedule: Q01DX001 (ip), vehicle: steriod suspending solution 104 % of control | dose: 400.0 mg/kg/injection, schedule: Q01DX001 (ip), vehicle: steriod suspending solution 90 % of control

O=C(Nc1cccc(F)c1)Nc1cccc([N+](=O)[O-])c1
inactive: [12] 102 % of control | dose: 200.0 mg/kg/injection, schedule: Q01DX009 (ip), vehicle: Klucel (hydroxypropylcellulose) (HPC) 102 % of control | dose: 400.0 mg/kg/injection, schedule: Q01DX009 (ip), vehicle: Klucel (hydroxypropylcellulose) (HPC) 97 % of control

O=C(O)/C=C/S(=O)(=O)c1ccc(Cl)cc1
inactive: dose: 12.5 mg/kg/injection, schedule: Q04DX002 (ip), vehicle: Klucel (hydroxypropylcellulose) (HPC) 101 % of control | [10] 97 % of control | dose: 25.0 mg/kg/injection, schedule: Q04DX002 (ip), vehicle: Klucel (hydroxypropylcellulose) (HPC) 97 % of control | [11] 97 % of control | [8] 108 % of control | [9] 95 % of control
